Laboratory results: US20250296938A1, “Compounds that Interact with the Ras Superfamily for the Treatment of Cancers, Inflammatory Diseases, Rasopathies, and Fibrotic Disease” (SHY Therapeutics, LLC, priority 2018, published 2025)
Like-named read-outs stand apart in the source and are kept apart here.

How the values were obtained:
Assay in all cases: Ras GTP binding domain inhibition assay (Cy3-GTP/Cy5-GTP competition)
[1] = test system: KRas G12C mutant; parameters: species or system human; conditions: 20 μM; for KRas G12C mutant + SOS: % inh.: with SOS (Table 7A); for KRas G12C mutant: % inh.: without SOS (Table 7A)
Summary of the method: (§1)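 First, His-tagged protein is coated on nickel wells overnight at 4 °C. Next, compound (20 μM single point or serial dilution) is added for 3 h at room temperature, with or without Sos exchange factor in the last hour. Finally, 100 nM labelled GTP binds for 45 min and retained signal is measured.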

[2] = test system: KRas Q61H mutant; parameters: species or system human; conditions: 20 μM; for KRas Q61H mutant + SOS: % inh.: with SOS (Table 7A); for KRas Q61H mutant: % inh.: without SOS (Table 7A)
Summary of the method: as §1

[3] = test system: KRas wild type; parameters: species or system human; conditions: 20 μM; for KRas wild type + SOS: % inh.: with SOS (Table 7A); for KRas wild type % inh.: without SOS (Table 7A)
Summary of the method: as §1

[4] = target: T1, KRas G12D mutant (Homo sapiens, UniProt P01116, G12D); conditions: 20 μM
T1 construct: fused on or other part: His tag, used for capture on nickel-coated plates
Summary of the method: as §1

[5] = with SOS (Table 7A), read-out: KRas G12D mutant + SOS: % inh.
[6] = without SOS (Table 7A), read-out: KRas G12D mutant: % inh.

Row | Compound | KRas G12C mutant + SOS: % inh. [1] | KRas G12C mutant: % inh. [1] | KRas Q61H mutant + SOS: % inh. [2] | KRas Q61H mutant: % inh. [2] | KRas wild type + SOS: % inh. [3] | KRas wild type % inh. [3] | inhibition at 20 µM [4, 5] | inhibition at 20 µM [4, 6]
1 | COC1CCC(Nc2nc(-c3nccn3C)nc3sc(-c4cccc(O)c4F)c(-c4ccccc4)c23)C1 (centres unmarked) [drawing 885] | C (51-75% inhibition) | B (26-50% inhibition) | C (51-75% inhibition) | B (26-50% inhibition) | C (51-75% inhibition) | B (26-50% inhibition) | 51 to 75% | 26 to 50%
2 | COc1c(F)cccc1-c1sc2nc(-c3nccn3C)nc(NC3CCC(OC)C3)c2c1-c1ccccc1 (centres unmarked) [drawing 886] | A (1-25% inhibition) | B (26-50% inhibition) | B (26-50% inhibition) | A (1-25% inhibition) | A (1-25% inhibition) | B (26-50% inhibition) | 1 to 25% | 1 to 25%
3 | COC1CCC(Nc2nc(-c3nccn3C)nc3sc(-c4cccc5[nH]ncc45)c(-c4ccccc4)c23)C1 (centres unmarked) [drawing 888] | D (76-100% inhibition) | B (26-50% inhibition) | D (76-100% inhibition) | C (51-75% inhibition) | D (76-100% inhibition) | B (26-50% inhibition) | 26 to 50% | 26 to 50%
4 | COC1CCN(c2nc(-c3nccn3C)nc3sc(-c4cccc(O)c4F)c(-c4ccccc4)c23)C1 (centres unmarked) [drawing 890] | C (51-75% inhibition) | A (1-25% inhibition) | C (51-75% inhibition) | B (26-50% inhibition) | C (51-75% inhibition) | B (26-50% inhibition) | 51 to 75% | 1 to 25%
5 | COc1cccc(-c2sc3nc(-c4nccn4C)nc(N[C@H]4C[C@@H](OC)C4)c3c2-c2ccccc2)c1F [drawing 891] | D (76-100% inhibition) | C (51-75% inhibition) | D (76-100% inhibition) | D (76-100% inhibition) | D (76-100% inhibition) | C (51-75% inhibition) | 51 to 75% | 26 to 50%
6 | CO[C@H]1C[C@@H](Nc2nc(-c3nccn3C)nc3sc(-c4cnn(C)c4)c(-c4ccccc4)c23)C1 [drawing 892] | D (76-100% inhibition) | D (76-100% inhibition) | D (76-100% inhibition) | D (76-100% inhibition) | D (76-100% inhibition) | D (76-100% inhibition) | 76 to 100% | 51 to 75%
7 | COc1cccc(-c2sc3nc(-c4nccn4C)nc(NC4CCC(OC)C4)c3c2C)c1F (centres unmarked) [drawing 893] | C (51-75% inhibition) | D (76-100% inhibition) | C (51-75% inhibition) | C (51-75% inhibition) | C (51-75% inhibition) | C (51-75% inhibition) | 51 to 75% | 76 to 100%
8 | COC1CCC(Nc2nc(-c3nccn3C)nc3sc(-c4cccc5[nH]ncc45)c(C)c23)C1 (centres unmarked) [drawing 895] | D (76-100% inhibition) | B (26-50% inhibition) | D (76-100% inhibition) | B (26-50% inhibition) | D (76-100% inhibition) | B (26-50% inhibition) | 51 to 75% | 26 to 50%
9 | COCCn1ccnc1-c1nc(O)c2scc(-c3ccc(OCC(C)C)nc3)c2n1 [drawing 898] | C (51-75% inhibition) | C (51-75% inhibition) | C (51-75% inhibition) | D (76-100% inhibition) | C (51-75% inhibition) | C (51-75% inhibition) | 51 to 75% | 51 to 75%
10 | CC(C)COc1ccc(-c2csc3c(O)nc(-c4nccn4Cc4ccccn4)nc23)cn1 [drawing 899] | C (51-75% inhibition) | C (51-75% inhibition) | D (76-100% inhibition) | C (51-75% inhibition) | C (51-75% inhibition) | D (76-100% inhibition) | 51 to 75% | 76 to 100%
11 | COc1cccc(Cn2ccnc2-c2nc(O)c3scc(-c4ccc(OCC(C)C)nc4)c3n2)c1 [drawing 900] | B (26-50% inhibition) | C (51-75% inhibition) | C (51-75% inhibition) | C (51-75% inhibition) | B (26-50% inhibition) | C (51-75% inhibition) | 51 to 75% | 51 to 75%
12 | CO[C@H]1CC[C@@H](Nc2nc(-c3nccn3C)nc(C(=O)N3CCc4c(O)cccc4C3)c2C)C1 [drawing 901] | A (1-25% inhibition) | B (26-50% inhibition) | B (26-50% inhibition) | B (26-50% inhibition) | A (1-25% inhibition) | B (26-50% inhibition) | 26 to 50% | 26 to 50%
13 | CO[C@H]1C[C@@H](Nc2nc(-c3ccccn3)nc3sccc23)C1 [drawing 902] | C (51-75% inhibition) | C (51-75% inhibition) | C (51-75% inhibition) | D (76-100% inhibition) | C (51-75% inhibition) | C (51-75% inhibition) | 51 to 75% | 51 to 75%
14 | CO[C@H]1C[C@@H](Nc2nc(-c3nccn3C)nc3sccc23)C1 [drawing 903] | D (76-100% inhibition) | D (76-100% inhibition) | D (76-100% inhibition) | D (76-100% inhibition) | D (76-100% inhibition) | C (51-75% inhibition) | 76 to 100% | 76 to 100%
15 | Cn1ccc(-c2sc3nc(-c4nccn4C)nc(O)c3c2-c2ccccc2)n1 [drawing 904] | B (26-50% inhibition) | B (26-50% inhibition) | B (26-50% inhibition) | C (51-75% inhibition) | A (1-25% inhibition) | A (1-25% inhibition) | 26 to 50% | 26 to 50%
16 | CO[C@H]1C[C@H](Nc2nc(-c3nccn3C)nc3sc(-c4ccn(C)n4)c(-c4ccccc4)c23)C1 [drawing 906] | D (76-100% inhibition) | C (51-75% inhibition) | D (76-100% inhibition) | C (51-75% inhibition) | D (76-100% inhibition) | C (51-75% inhibition) | 51 to 75% | 26 to 50%
17 | CN(C)CCOCCNc1nc(-c2nccn2C)nc2sc(-c3ccn(C)n3)c(-c3ccccc3)c12 [drawing 907] | C (51-75% inhibition) | C (51-75% inhibition) | D (76-100% inhibition) | C (51-75% inhibition) | C (51-75% inhibition) | C (51-75% inhibition) | 51 to 75% | 26 to 50%
18 | Cn1ccc(-c2sc3nc(-c4nccn4C)nc(N[C@H]4C[C@@H](O)C4)c3c2-c2ccccc2)n1 [drawing 908] | A (1-25% inhibition) | A (1-25% inhibition) | 0 (0% inhibition) | A (1-25% inhibition) | 0 (0% inhibition) | A (1-25% inhibition) | 0% | 0%
19 | CO[C@H]1C[C@@H](Nc2nc(-c3ncc[nH]3)nc3sc(-c4ccn(C)n4)c(-c4ccccc4)c23)C1 [drawing 910] | B (26-50% inhibition) | B (26-50% inhibition) | B (26-50% inhibition) | C (51-75% inhibition) | A (1-25% inhibition) | B (26-50% inhibition) | 26 to 50% | 26 to 50%
